For assay [1], the target named is human norepinephrine transporter (NET) (Homo sapiens, UniProt P23975). The experiment in a line: Binding assay to human norepinephrine transporter (NET) ([3H]-Nisoxetin). To be noted: [3H]-Nisoxetin 5 nM, human NET enriched membranes. Here is the method:
Binding assay to human norepinephrine transporter (NET).
Human norepinephrine transporter (NET) enriched membranes ([…]) were incubated with 5 nM of radiolabeled [3H]-Nisoxetin in assay buffer containing 50mM Tris-HCl, 120mM NaCl, 5mM KCI, pH 7.4. NSB (non specific binding) was measured by adding […] of desipramine. The binding of the test compound was measured at either one concentration (% inhibition at 1 or 10 μM) or five different concentrations to determine affinity values (Ki). After 60 min incubation at 4° C., binding reaction was terminated by filtering through Multiscreen GF/C (Millipore) presoaked in 0.5% polyethyleneimine in Vacuum Manifold Station, followed by 3 washes with ice-cold filtration buffer containing 50mM Tris-HCl, 0.9% NaCl, pH 7.4. Filter plates were dried at 60° C. for 1 hour and 30 µl of scintillation cocktail were added to each well before radioactivity reading. Readings were performed in a Trilux 1450 Microbeta radioactive counter (Perkin Elmer).

Assay [2] addresses human α2δ-1 subunit of Cav2.2 calcium channel (Homo sapiens, UniProt P54289). Description: Binding assay to human α2δ-1 subunit of Cav2.2 calcium channel ([3H]-Gabapentin). Particulars: [3H]-Gabapentin 15 nM, human α2δ-1 enriched membranes. How it is done: Binding assay to human α2δ-1 subunit of Cav2.2 calcium channel. Human a26-1 enriched membranes (2.5 μg) were incubated with 15 nM of radiolabeled [3H]-Gabapentin in assay buffer containing Hepes-KOH 10 mM, pH 7.4. NSB (non specific binding) was measured by adding 10 μM pregabalin. The binding of the test compound was measured at either one concentration (% inhibition at 1 or 10 μM) or five different concentrations to determine affinity values (Ki). After 60 min incubation at 27° C., binding reaction was terminated by filtering through Multiscreen GF/C (Millipore) presoaked in 0.5% polyethyleneimine in Vacuum Manifold Station, followed by 3 washes with ice-cold filtration buffer containing 50 mM Tris-HCl, pH 7.4. Filter plates were dried at 60° C. for 1 hour and 30 μl of scintillation cocktail were added to each well before radioactivity reading. Readings were performed in a Trilux 1450 Microbeta radioactive counter (Perkin Elmer).

human α2δ-1 subunit of Cav2.2 calcium channel, sequence (P54289 25-1103): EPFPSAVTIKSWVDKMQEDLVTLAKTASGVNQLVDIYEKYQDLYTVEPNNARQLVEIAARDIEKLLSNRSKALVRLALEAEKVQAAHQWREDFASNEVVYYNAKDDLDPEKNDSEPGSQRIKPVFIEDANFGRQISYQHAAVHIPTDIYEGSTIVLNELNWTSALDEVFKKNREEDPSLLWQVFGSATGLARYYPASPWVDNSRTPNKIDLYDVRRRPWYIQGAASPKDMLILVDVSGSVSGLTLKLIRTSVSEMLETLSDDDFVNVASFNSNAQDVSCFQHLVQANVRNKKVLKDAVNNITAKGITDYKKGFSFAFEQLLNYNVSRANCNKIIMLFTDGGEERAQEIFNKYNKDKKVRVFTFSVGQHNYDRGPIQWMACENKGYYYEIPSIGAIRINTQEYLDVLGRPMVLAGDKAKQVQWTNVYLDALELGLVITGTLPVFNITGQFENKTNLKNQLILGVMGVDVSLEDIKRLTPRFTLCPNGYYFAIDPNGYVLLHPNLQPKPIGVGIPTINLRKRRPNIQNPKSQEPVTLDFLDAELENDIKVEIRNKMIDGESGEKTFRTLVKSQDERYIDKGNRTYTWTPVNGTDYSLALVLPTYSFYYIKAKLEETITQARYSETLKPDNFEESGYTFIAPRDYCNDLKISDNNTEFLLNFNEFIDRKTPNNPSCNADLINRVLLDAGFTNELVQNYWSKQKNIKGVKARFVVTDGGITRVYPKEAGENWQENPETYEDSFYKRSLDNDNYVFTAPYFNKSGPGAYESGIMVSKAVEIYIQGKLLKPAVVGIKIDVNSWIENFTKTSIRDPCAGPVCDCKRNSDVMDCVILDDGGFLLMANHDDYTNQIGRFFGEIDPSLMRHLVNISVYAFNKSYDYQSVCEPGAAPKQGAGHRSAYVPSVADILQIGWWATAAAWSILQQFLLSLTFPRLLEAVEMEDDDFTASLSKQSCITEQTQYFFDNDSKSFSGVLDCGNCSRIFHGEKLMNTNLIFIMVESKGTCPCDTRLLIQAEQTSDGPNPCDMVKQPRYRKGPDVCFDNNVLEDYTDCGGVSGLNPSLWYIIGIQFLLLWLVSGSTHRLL
human norepinephrine transporter (NET), sequence (P23975 whole entry): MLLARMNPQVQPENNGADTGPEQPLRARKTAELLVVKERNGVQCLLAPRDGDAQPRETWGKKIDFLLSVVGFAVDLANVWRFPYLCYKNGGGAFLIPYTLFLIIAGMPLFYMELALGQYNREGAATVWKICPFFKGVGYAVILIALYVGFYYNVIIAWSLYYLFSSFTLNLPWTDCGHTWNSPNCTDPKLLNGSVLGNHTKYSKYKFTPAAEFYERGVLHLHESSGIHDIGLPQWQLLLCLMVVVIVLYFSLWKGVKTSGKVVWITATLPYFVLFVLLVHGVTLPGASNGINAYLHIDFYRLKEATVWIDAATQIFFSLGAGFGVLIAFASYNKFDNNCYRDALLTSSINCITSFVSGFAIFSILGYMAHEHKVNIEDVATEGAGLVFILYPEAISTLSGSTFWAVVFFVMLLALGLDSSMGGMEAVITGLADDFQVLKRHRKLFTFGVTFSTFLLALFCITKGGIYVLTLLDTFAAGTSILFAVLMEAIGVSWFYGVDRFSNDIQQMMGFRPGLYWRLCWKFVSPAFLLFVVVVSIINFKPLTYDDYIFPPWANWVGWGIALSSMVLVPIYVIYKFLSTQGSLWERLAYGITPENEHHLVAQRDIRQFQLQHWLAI

As to `CNCC[C@H](Oc1ccc(CN2CCN(C)c3ccncc3C2=O)c(C)c1)c1ccccc1` [Example 1, (S)-1-Methyl-4-(2-methyl-4-(3-(methylamino)-1-phenylpropoxy)benzyl) -1,2,3,4-tetrahydro-5H-pyrido[4,3-e][1,4]cliazepin-5-one], the inhibition constant Ki in assay [1] and in assay [2] was 100 to 500 nM in each case.

`CNCC[C@H](Oc1ccc(CN2CCN(C)c3nc(OC)ncc3C2=O)c(C)c1)c1ccccc1` [Example 2, (S)-2-Methoxy-9-methyl-6-(2-methyl-4-(3-(methylamino)-1-phenylpropoxy)benzyl)-6,7,8,9-tetrahydro-5H-pyrimido[4,5-e][1,4]diazepin-5-one]: the inhibition constant Ki in assay [1] and in assay [2] was less than 100 nM each time.

In the case of `CNCC[C@H](Oc1ccc(CN2CCN(C)c3ncncc3C2=O)c(C)c1)c1ccccc1` [Example 3, (S)-9-Methyl-6-(2-methyl-4-(3-(methylamino)-1-phenylpropoxy)benzyl)-6,7,8,9-tetrahydro-5H-pyrimido[4,5-e][1,4]diazepin-5-one], the Ki in assay [1] and in assay [2] was less than 100 nM in each case.

On to `CNCC[C@H](Oc1ccc(CN2CCN(C)c3nc(N)ncc3C2=O)c(Cl)c1)c1ccccc1` [Example 4, (S)-2-Amino-6-(2-chloro-4-(3-(methylamino)-1-phenylpropoxy)benzyl)-9-methyl-6,7,8,9-tetrahydro-5H-pyrimido[4,5-e][1,4]diazepin-5-one], for which the Ki in assay [1] and in assay [2] was less than 100 nM each time.

On to `CCNc1ncc2c(n1)N(C)CCN(Cc1ccc(O[C@@H](CCNC)c3ccccc3)cc1Cl)C2=O` [Example 5, (S)-6-(2-Chloro-4-(3-(methylamino)-1-phenylpropoxy)benzyl)-2-(ethylamino)-9-methyl-6,7,8,9-tetrahydro-5H-pyrimido[4,5-e][1,4]diazepin-5-one], for which the inhibitory constant (Ki) is 100 to 500 nM in assay [1] and less than 100 nM in assay [2].

For the molecule `CCNc1ncc2c(n1)N(C)CCN(Cc1ncc(O[C@@H](CCNC)c3cccc(F)c3)cc1F)C2=O` [Example 6, (S)-2-(Ethylamino)-6-((3-fluoro-5-(1-(3-fluorophenyl)-3-(methylamino)propoxy)pyridin-2-yl)methyl)-9-methyl-6,7,8,9-tetrahydro-5H-pyrimido[4,5-e][1,4]diazepin-5-one], the Ki in assay [1] was 100 to 500 nM; in assay [2], less than 100 nM.

In the case of `CNCC[C@H](Oc1cnc(CN2CCN(C)c3nc(N)ncc3C2=O)c(F)c1)c1cccc(F)c1` [Example 7, (S)-2-Amino-6-((3-fluoro-5-(1-(3-fluorophenyl)-3-(methylamino)propoxy)pyridin-2-yl)methyl)-9-methyl-6,7,8,9-tetrahydro-5H-pyrimido[4,5-e][1,4]diazepin-5-one], the Ki in assay [1] and in assay [2] was less than 100 nM each time.

Regarding `CNCC[C@H](Oc1ccc(CN2CCN(C)c3ccncc3C2=O)c(F)c1)c1ccccc1` [Example 8, (S)-4-(2-Fluoro-4-(3-(methylamino)-1-phenylpropoxy)benzyI)-1-methyl-1,2,3,4-tetrahydro-5H-pyrido[4,3-e][1,4]diazepin-5-one], the Ki in assay [1] was 100 to 500 nM; in assay [2] it was less than 100 nM.

As to `CNCC[C@H](Oc1ccc(CN2CCN(C)c3nc(OC)ncc3C2=O)c(F)c1)c1ccccc1` [Example 9, (S)-6-(2-Fluoro-4-(3-(methylamino)-1-phenylpropoxy)benzyl)-2-methoxy-9-methyl-6,7,8,9-tetrahydro-5H-pyrimido[4,5-e][1,4]diazepin-5-one], the Ki in assay [1] is 100 to 500 nM; in assay [2], less than 100 nM.

On to `CNCC[C@H](Oc1ccc(CN2CCN(C)c3ncncc3C2=O)c(F)c1)c1ccccc1` [Example 10, (S)-6-(2-Fluoro-4-(3-(methylamino)-1-phenylpropoxy)benzyl)-9-methyl-6,7,8,9-tetrahydro-5H-pyrimido[4,5-e][1,4]diazepin-5-one], for which the Ki in assay [1] and in assay [2] was less than 100 nM in each case.

As to `CNCC[C@H](Oc1ccc(CN2CCN(C)c3nc(N)ncc3C2=O)c(F)c1)c1ccccc1` [Example 11, (S)-2-Amino-6-(2-fluoro-4-(3-(methylamino)-1-phenylpropoxy)benzyl)-9-methyl-6,7,8,9-tetrahydro-5H-pyrimido[4,5-e][1,4]diazepin-5-one], the Ki is 100 to 500 nM in assay [1] and less than 100 nM in assay [2].

Take `CNCC[C@H](Oc1ccc(CN2CCN(C)c3cc(OC)ncc3C2=O)c(F)c1)c1ccccc1` [Example 12, (S)-4-(2-Fluoro-4-(3-(methylamino)-1-phenylpropoxy)benzyl)-8-methoxy-1-methyl-1,2,3,4-tetrahydro-5H-pyrido[4,3-e][1,4]diazepin-5-one]: the Ki in assay [1] is 100 to 500 nM; in assay [2], less than 100 nM.

On to `CCNc1ncc2c(n1)N(C)CCN(Cc1ccc(O[C@H](CCNC)c3cccc(F)c3)cc1F)C2=O` [Example 13, (R)-2-(Ethylamino)-6-(2-fluoro-4-(1-(3-fluorophenyl)-3-(methylamino)propoxy)benzyl)-9-methyl-6,7,8,9-tetrahydro-5H-pyrimido[4,5-e][1,4]diazepin-5-one], for which the inhibition constant Ki in assay [1] is 500 to 1000 nM; in assay [2], no less than 3000 nM.

As to `CCNc1ncc2c(n1)N(C)CCN(Cc1ccc(O[C@@H](CCNC)c3cccc(F)c3)cc1F)C2=O` [Example 14, (S)-2-(Ethylamino)-6-(2-fluoro-4-(1-(3-fluorophenyl)-3-(methylamino)propoxy)benzyl)-9-methyl-6,7,8,9-tetrahydro-5H-pyrimido[4,5-e][1,4]diazepin-5-one], the Ki was 100 to 500 nM in assay [1] and less than 100 nM in assay [2].

On to `CNCC[C@H](Oc1cnc(CN2CCN(C)c3cc(OC)ncc3C2=O)c(F)c1)c1cccs1` [Example 15, (S)-4-((3-Fluoro-5-(3-(methylamino)-1-(thiophen-2-yl)propoxy)pyridin-2-yl)methyl)-8-methoxy-1-methyl-1,2,3,4-tetrahydro-5H-pyrido[4,3-e][1,4]diazepi n-5-one.], for which the Ki in assay [1] and in assay [2] was less than 100 nM each time.

These data come from patent US20210395254A1, “NEW TETRAHYDROPYRIMIDODIAZEPIN AND TETRAHYDROPYRIDODIAZEPIN COMPOUNDS FOR TREATING PAIN AND PAIN RELATED CONDITIONS” (ESTEVE PHARMACEUTICALS, S.A., priority 2018, published 2021).
